This assay concerns rat mixed glia culture. As to the kind of experiment: Neural neogenesis promoting effect in rat mixed glia culture (differentiation assay, β III tubulin positive cell count). The settings on record: 120 h, 1 μM compound, 5 days differentiation, β III tubulin positive cells, % activity based on non-treatment control, read-out: Differentiation or neogenesis promoting activity (%). The source says: Neural Neogenesis Promoting Effect in Rat Mixture Glia Culture
A neonatal SD rat was purchased from Charles River Japan, Inc. A nylon cell strainer with 40 micron in diameter was purchased from Becton Dickinson. DMEM/F12 Medium, antibiotics, N2 additives were purchased from LIFE TECHNOLOGY. Anti-β III-tubulin antibody was purchased from Sigma. DAKO EnVision+/HRP kit was purchased from DAKO Japan. Other reagents were commercial products of analytical grade.
A rat mixed glia culture was made from a hippocampus of a neonatal SD rat of 2 days old. The neonate was anesthetized by ice-cooling, sacrificed by decapitation and the brain was taken out immediately. The meninx was removed carefully, and the […] was separated. The hippocampus was pulverized mechanically by passing through a nylon cell strainer with 40 micron in diameter. The cell dispersion was overlaid on serum, and the cells were fractionated by a non-continuous gradient centrifugation. The pellet was washed twice with a growth medium (DMEM/F12 supplemented with 10% FBS and antibiotics) and then dispersed. The mixed glia culture was inoculated onto a collagen-coated 96-well multiplate at the density of 1×10^5 cells per well, and incubated for 5 days.
After incubating for 5 days, the mixed glia culture was subjected to a differentiation assay. The growth medium was replaced with a serum-free medium (DMEM/F12 supplemented with N2 additives and antibiotics) and the test compound was added simultaneously. After allowing to undergo the differentiation for 5 days followed by fixation with 4% p-formaldehyde, a mouse anti-β III tubulin monoclonal antibody and DAKO EnVision+/HRP kit was used to effect an immunostaining.
The β III tubulin positive cells were counted, and the data in the presence (1 μM) of the Compound (I) and the absence (control) were compared.

With `Cc1c(C)c2c(c(C)c1NCc1ccc(F)cc1)C(c1ccc(C(C)C)cc1)C(C)(C)O2` (stereo not drawn) [Example 19b, N-(4-fluorobenzyl)-3-(4-isopropylphenyl)-2,2,4,6,7-pentamethyl-2,3-dihydro-1-benzofuran-5-amine], the activity at 1 µM was 468%.
Consider `COc1cc2c(cc1OC)CN(c1c(C)c(C)c3c(c1C)[C@@H](c1ccc(C)cc1)C(C)(C)O3)C2` [Example 17a, (R)-5,6-dimethoxy-2-[2,2,4,6,7-pentamethyl-3-(4-methylphenyl)-2,3-dihydro-1-benzofuran-5-yl]isoindoline], for which the activity at 1 µM is 344%.
Next, `COc1cc2c(cc1OC)CN(c1c(C)c(C)c3c(c1C)C(c1ccc(C(C)C)cc1)C(C)(C)O3)C2` (stereo not drawn) [Example 11a, 5,6-dimethoxy-2-[3-(4-isopropylphenyl)-2,2,4,6,7-pentamethyl-2,3-dihydro-1-benzofuran-5-yl]isoindoline]: 478%.

The values are drawn from US20040034049A1, “Promoters for the proliferation and differentiation of stem cells and/or neuron precursor cells” (priority 2003, published 2004).
